Measurements as given in US5290576A, “Tert-butyloxycarbonyl-L-tyrosyl-peptidoglycan monomer and ^125 I-labeled derivative thereof, their preparation and use” (Pliva Farmaceutska, priority 1990, dated 1994).

Columns and labels:
[1] = test system: antibody-forming cells (plaque-forming cells, PFC) in the spleen of mice immunized with sheep erythrocytes (SRBC); assay: Immunostimulating activity: plaque-forming cells in spleen of mice immunized with sheep erythrocytes (Jerne's technique); type: in vivo; conditions: for PFC, % (of Hanks' control): 200 μg i.v. on day +1, PFC on day +4, Hanks' control = 100; for PFC, mean (X) / PFC, range of individual values: 200 μg i.v. on day +1 after SRBC i.p., PFC in spleen on day +4
Method: The immunostimulating activity of Boc-Tyr-PGM was tested in mice immunized with sheep erythrocytes (sheep red blood cells, SRBC).
Mice (CBA or AKR), five per group, were immunized i.p. with sheep erythrocytes (1×10^8 SRBC) in Hanks' solution. One day later (on day +1), the control group of mice receiving i.v. Hanks' solution, whereas the test group of mice was given i.v. 200 μg of Boc-Tyr-PGM in Hanks' solution. As positive control, a group of mice was used, to which 200 μg of peptidoglycan monomer (PGM) in Hanks' solution was administered i.v. Four days later (on day +4), the number of antibody-forming cells (plaque-forming cells, PFC) was determined in the spleen by Jerne's technique (Jerne, N. K., Nordin, A. A., and Henry, C. (1963), The agar plaque tecnique for recognizing antibody producing cells, in: "Cell Bound Antibodies", p. 109, Wistar Institute Press, Philadelphia).

melanoma B-16 = assay: Antitumor (antimetastatic) activity: lung metastases in mice inoculated with melanoma B-16; type: in vivo; conditions: for Inhibition % / Metastases %: counted on day 23; for Metastases %: Hanks' control = 100; for Number of metastases, mean (X): C57BL/6 mice, lung metastases counted on day 23
Method: The antitumor activity of Boc-Tyr-PGM was investigated in mice, inoculated with melanoma B-16.
Mice (C5 7 BL/6, male, 4 months old), five per group, were given i.v. each 1×10^5 cells of B-16 melanoma on day 0.
One group of mice was chosen as control and was not treated further in any manner. The mice in experimental groups were given i.v. each 1 mg of Boc-Tyr-PGM, according to the following protocol:
3rd group--days 3 and 7 (total 2 mg of Boc-Tyr-PGM)
Three mice groups, which received PGM (PLIVA) i.v. according to the same protocol, were chosen as the positive control.
Macroscopically detectable lung metastases were counted on day 23.

[2] = 1 mg i.v. on days 3 and 7 (total 2 mg)

Substance | PFC, % (of Hanks' control) ([1]; AKR mice) [%] | PFC, mean (X) ([1]; AKR mice) | PFC, range of individual values ([1]; AKR mice) | PFC, % (of Hanks' control) ([1]; CBA mice) [%] | PFC, mean (X) ([1]; CBA mice) | PFC, range of individual values ([1]; CBA mice) | increased number of PFC in comparison with the control group ([1]; both mice strains (CBA, AKR), 200 μg i.v.) | effectiveness compared with the positive control peptidoglycan monomer ([1]; both tests (CBA, AKR)) | Inhibition % (melanoma B-16; 1 mg i.v. on day 3) [%] | Metastases % (melanoma B-16; 1 mg i.v. on day 3) [%] | Inhibition % (melanoma B-16; 1 mg i.v. on day 7) [%] | Metastases % (melanoma B-16; 1 mg i.v. on day 7) [%] | Inhibition % (melanoma B-16; [2]) [%] | Metastases % (melanoma B-16; [2]) [%] | Number of metastases, mean (X) (melanoma B-16; 1 mg i.v. on day 3) | Number of metastases, mean (X) (melanoma B-16; 1 mg i.v. on day 7) | Number of metastases, mean (X) (melanoma B-16; [2]) | inhibition rate of metastases, all treated mice groups (melanoma B-16; all treatment protocols (day 3, day 7, days 3 and 7)) | difference in inhibition rate between treatment periods and total doses (melanoma B-16; day 3 or 7, 1 mg on day 3 or total 2 mg on days 3 and 7) | antimetastatic effect compared with PGM (PLIVA) positive control (melanoma B-16; mouse, in vivo)
tert-Butyloxycarbonyl-L-tyrosyl-peptidoglycan monomer [Boc-Tyr-PGM] | 150 | 55,974 | 31,730-68,670 | 157 | 295,866 | 257,600-304,266 | approximately 50% | comparable with the effect of the positive control | 38.7 | 61.3 | 41.9 | 58.1 | 43.6 | 56.4 | 7.6 ± 1.9 | 7.2 ± 4.0 | 7.0 ± 2.7 | 37.8%-43.6 | No significant difference in the inhibition rate | comparable to the effect of PGM (PLIVA)
GlcNAc-β-(1→4)MurNAc-L-Ala-D-iGln-[(L)-meso-A2 pm-(D)-amide-(L)-D-Ala-D-Ala] [PGM, reference compound] | 130 | 48,668 | 27,200-61,070 | 166 | 313,413 | 198,800-449,866 | – | – | 50.0 | 50.0 | 66.5 | 43.5 | 67.3 | 42.7 | 6.2 ± 4.4 | 5.4 ± 1.7 | 5.3 ± 1.7 | – | – | –
